According to ChEMBL document CHEMBL5154648, “Antitumor activity of novel POLA1-HDAC11 dual inhibitors” (Eur J Med Chem, 2022):
Active and inactive are the calls of the source. The calls are words filed in the database; no cut-off is given here.

What was measured:
NCI-H460 [1] = test: Antiproliferative activity against human NCI-H460 cells at 0.1 to 0.4 uM assessed as reduction in p-ERK1/2 level and measured by Western blot analysis; assay type: functional, cell-based; conditions: dose 0.1-0.4 µM
A2780 = test: Induction of cell cycle arrest in human A2780 cells assessed as accumulation of cells at sub-G1 phase at 0.95 uM after 72 hrs by flow cytometry (reference value: 1.6%); assay type: functional
NCI-H460 [2] = test: Induction of DNA damage in human NCI-H460 cells at 0.1 to 0.4 uM assessed as increase in p-H2AX levels and measured by Western blot analysis; assay type: functional, cell-based; conditions: dose 0.1-0.4 µM
NCI-H460 [3] = test: Antiproliferative activity against human NCI-H460 cells at 0.1 to 0.4 uM assessed as reduction in PIN1 level and measured by Western blot analysis; assay type: functional, cell-based; conditions: dose 0.1-0.4 µM
[4] = biological target: T1, Histone deacetylase 11 (Homo sapiens) (UniProt Q96DB2); test: Inhibition of HDAC11 in human NCI-H460 cells at 0.1 to 0.4 uM assessed as induction of p53 acetylation and measured by Western blot analysis; assay type: cell-based; conditions: dose 0.1-0.4 µM
T1 sequence (whole entry): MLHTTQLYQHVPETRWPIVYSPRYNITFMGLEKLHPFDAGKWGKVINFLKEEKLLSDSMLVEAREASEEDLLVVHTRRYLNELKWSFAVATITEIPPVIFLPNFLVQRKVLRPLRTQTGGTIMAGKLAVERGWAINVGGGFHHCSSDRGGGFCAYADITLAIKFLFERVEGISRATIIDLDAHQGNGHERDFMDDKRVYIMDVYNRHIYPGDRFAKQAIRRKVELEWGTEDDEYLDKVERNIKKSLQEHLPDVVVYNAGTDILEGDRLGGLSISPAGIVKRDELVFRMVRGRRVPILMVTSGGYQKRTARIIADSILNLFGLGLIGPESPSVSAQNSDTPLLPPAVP

[5] = biological target: T2, DNA polymerase alpha catalytic subunit (Homo sapiens) (UniProt P09884); test: Inhibition of recombinant POLA1 (unknown origin) using 5-Fluorescein-rGrGrArArArGrGrArCrGrArArArCrA-3 as substrate at 10 to 50 uM and measured by primer extension assay; conditions: dose 10-50 µM
T2 sequence (whole entry): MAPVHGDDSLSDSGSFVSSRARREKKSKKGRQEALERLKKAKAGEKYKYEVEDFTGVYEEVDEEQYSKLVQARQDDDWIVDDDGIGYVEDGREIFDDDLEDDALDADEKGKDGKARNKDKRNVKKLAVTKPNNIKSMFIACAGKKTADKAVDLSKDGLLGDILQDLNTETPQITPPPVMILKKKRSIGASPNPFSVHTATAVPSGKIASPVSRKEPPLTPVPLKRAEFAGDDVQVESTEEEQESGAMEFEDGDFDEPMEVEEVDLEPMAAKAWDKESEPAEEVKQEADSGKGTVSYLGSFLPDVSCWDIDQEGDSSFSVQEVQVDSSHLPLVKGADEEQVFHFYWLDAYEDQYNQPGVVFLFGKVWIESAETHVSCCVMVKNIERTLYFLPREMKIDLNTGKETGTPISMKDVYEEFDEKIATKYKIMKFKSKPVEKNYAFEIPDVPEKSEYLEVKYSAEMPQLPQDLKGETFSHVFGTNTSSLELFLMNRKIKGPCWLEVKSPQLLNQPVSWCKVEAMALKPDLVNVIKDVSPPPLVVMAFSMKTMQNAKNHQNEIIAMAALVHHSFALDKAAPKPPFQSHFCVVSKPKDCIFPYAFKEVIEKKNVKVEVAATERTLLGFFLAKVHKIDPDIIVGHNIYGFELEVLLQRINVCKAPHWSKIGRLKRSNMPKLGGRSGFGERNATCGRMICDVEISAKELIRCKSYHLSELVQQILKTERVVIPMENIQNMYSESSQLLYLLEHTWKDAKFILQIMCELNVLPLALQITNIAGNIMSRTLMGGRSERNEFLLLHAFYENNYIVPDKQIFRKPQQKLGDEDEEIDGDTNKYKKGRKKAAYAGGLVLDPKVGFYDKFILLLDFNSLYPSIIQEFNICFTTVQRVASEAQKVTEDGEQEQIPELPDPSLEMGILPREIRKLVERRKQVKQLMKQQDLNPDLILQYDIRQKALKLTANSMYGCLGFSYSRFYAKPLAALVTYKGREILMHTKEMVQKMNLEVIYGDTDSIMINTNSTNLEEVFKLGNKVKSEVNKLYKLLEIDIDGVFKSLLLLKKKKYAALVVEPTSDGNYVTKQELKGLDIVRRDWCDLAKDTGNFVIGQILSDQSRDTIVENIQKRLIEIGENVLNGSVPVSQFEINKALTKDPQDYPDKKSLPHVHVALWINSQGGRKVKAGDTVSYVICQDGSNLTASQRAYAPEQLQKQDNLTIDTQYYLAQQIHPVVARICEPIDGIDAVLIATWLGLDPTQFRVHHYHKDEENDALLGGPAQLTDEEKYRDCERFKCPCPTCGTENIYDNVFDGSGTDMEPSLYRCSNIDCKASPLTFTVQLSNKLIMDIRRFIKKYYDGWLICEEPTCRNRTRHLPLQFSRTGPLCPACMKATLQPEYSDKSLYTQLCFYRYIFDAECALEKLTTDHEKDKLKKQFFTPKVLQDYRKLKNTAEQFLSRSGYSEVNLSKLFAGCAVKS

NCI-H460 [6] = test: Induction of cell cycle arrest in human NCI-H460 cells assessed as accumulation of cells at G2/M phase at 0.12 uM after 72 hrs by flow cytometry (reference value: 21.1%); assay type: functional
NCI-H460 [7] = test: Induction of cell cycle arrest in human NCI-H460 cells assessed as accumulation of cells at G0/1 phase at 0.12 uM after 72 hrs by flow cytometry (reference value: 46.8%); assay type: functional
NCI-H460 [8] = test: Induction of cell cycle arrest in human NCI-H460 cells assessed as accumulation of cells at sub-G1 phase at 0.12 uM after 72 hrs by flow cytometry (reference value: 1.1%); assay type: functional
MDA-MB-231 = test: Antiproliferative activity against human MDA-MB-231 cells incubated for 24 hrs followed by incubating in drug-free medium for 48 hrs and measured by SRB assay; assay type: functional, cell-based
[9] = biological target: T1, Histone deacetylase 11 (Homo sapiens); test: Inhibition of HDAC11 in human MM487 cells at 0.1 to 0.4 uM assessed as induction of p53 acetylation and measured by Western blot analysis; assay type: cell-based; conditions: dose 0.1-0.4 µM
NCI-H460 [10] = test: Induction of cell cycle arrest in human NCI-H460 cells assessed as accumulation of cells at G0/1 phase at 0.25 uM after 72 hrs by flow cytometry (reference value: 46.8%); assay type: functional

Row | Structure (SMILES) | Activity (NCI-H460 [1]) | Activity (A2780) [%] | Activity (NCI-H460 [2]) | Activity (NCI-H460 [3]) | inhibition [4] | inhibition [5] | Activity (NCI-H460 [6]) [%] | Activity (NCI-H460 [7]) [%] | Activity (NCI-H460 [8]) [%] | IC50 (MDA-MB-231) [nM] | inhibition [9] | Activity (NCI-H460 [10]) [%]
1 | CC(Oc1ccc(-c2ccc(C=CC(=O)O)cc2)cc1C12CC3CC(CC(C3)C1)C2)C(=O)NO (stereo not drawn) | Active | 23 | Active | Active | Active | Active | – | – | – | – | – | –
2 | O=C(O)C=Cc1ccc(-c2ccc(O)c(C34CC5CC(CC(C5)C3)C4)c2)cc1 | – | – | – | – | – | – | 6.5 | 13.8 | 12.4 | 1100 | – | –
3 | O=C(O)C=Cc1ccc(-c2ccc(OCC(=O)NO)c(C34CC5CC(CC(C5)C3)C4)c2)cc1 | Active | – | Active | Active | Active | Active | – | – | – | 1900 | Active | 16.3
